Test system: MV-4-11 cells
Test: Gene expression microarray analysis (Affymetrix PrimeView) and GSEA
Type: cell-based, human
Design: RFU PODN (11730768_x_at) / Fold change /veh PODN (11730768_x_at) / RFU LINC00158 (11744669_a_at) / Fold change /veh LINC00158 (11744669_a_at) / RFU DUSP10 (11751237_a_at) / Fold change /veh DUSP10 (11751237_a_at) / RFU ID3 (11757404_x_at) / Fold change /veh ID3 (11757404_x_at) / RFU PLEKHG5 (11737974_s_at) / Fold change /veh PLEKHG5 (11737974_s_at) / RFU LRRC4B (11730491_at) / Fold change /veh LRRC4B (11730491_at) / RFU GIMAP4 (11747438_a_at) / Fold change /veh GIMAP4 (11747438_a_at) / RFU KRT8 (11758183_x_at) / Fold change /veh KRT8 (11758183_x_at) / RFU CNN1 (11734310_a_at) / Fold change /veh CNN1 (11734310_a_at) / RFU VPS37D (11726825_at) / Fold change /veh VPS37D (11726825_at) / RFU C10orf10 (11716522_x_at) / Fold change /veh C10orf10 (11716522_x_at) / RFU KIR2DL2 /// KIR2DL4 /// KIR2DL5A /// KIR2DL5B /// KIR2DS1 /// KIR2DS2 /// KIR2DS3 /// KIR2DS4 /// KIR3DL3 /// KIR3DL3 /// KIR3DS1 (11738374_at) / Fold change /veh KIR2DL2 /// KIR2DL4 /// KIR2DL5A /// KIR2DL5B /// KIR2DS1 /// KIR2DS2 /// KIR2DS3 /// KIR2DS4 /// KIR3DL3 /// KIR3DL3 /// KIR3DS1 (11738374_at) / RFU C1QL1 (11718748_at) / Fold change /veh C1QL1 (11718748_at) / RFU TMPRSS4 (11747572_a_at) / Fold change /veh TMPRSS4 (11747572_a_at) / RFU HAMP (11756126_x_at) / Fold change /veh HAMP (11756126_x_at) / RFU RNFT2 (11725882_a_at) / Fold change /veh RNFT2 (11725882_a_at) / RFU NR4A2 (11747474_a_at) / Fold change /veh NR4A2 (11747474_a_at) / RFU ABCC12 (11746883_a_at) / Fold change /veh ABCC12 (11746883_a_at) / RFU TMEM136 (11760407_x_at) / Fold change /veh TMEM136 (11760407_x_at) / RFU CLDN22 /// WWC2 (11732394_at) / Fold change /veh CLDN22 /// WWC2 (11732394_at) / RFU HLA-DPB1 (11760878_x_at) / Fold change /veh HLA-DPB1 (11760878_x_at) / RFU SPINT1 (11716480_a_at) / Fold change /veh SPINT1 (11716480_a_at) / RFU GAP43 (11754022_s_at) / Fold change /veh GAP43 (11754022_s_at) / RFU A4GNT (11735810_at) / Fold change /veh A4GNT (11735810_at) / RFU PRB3 (11715151_x_at) / Fold change /veh PRB3 (11715151_x_at) / RFU TUBB4B (11761932_at) / Fold change /veh TUBB4B (11761932_at) / RFU CAPN14 (11732068_a_at) / Fold change /veh CAPN14 (11732068_a_at) / RFU TMCC2 (11721928_a_at) / Fold change /veh TMCC2 (11721928_a_at) / RFU IRGQ (11745062_a_at) / Fold change /veh IRGQ (11745062_a_at) / RFU FAM174B (11720279_a_at) / Fold change /veh FAM174B (11720279_a_at) / RFU TMPRSS4 (11748680_a_at) / Fold change /veh TMPRSS4 (11748680_a_at) / RFU FAM212B (11763350_a_at) / Fold change /veh FAM212B (11763350_a_at) / RFU PLEKHG5 (11743358_a_at) / Fold change /veh PLEKHG5 (11743358_a_at) / RFU ZSCAN30 (11745921_a_at) / Fold change /veh ZSCAN30 (11745921_a_at) / RFU CMKLR1 (11741424_a_at) / Fold change /veh CMKLR1 (11741424_a_at) / RFU LOC101060620 /// MAPK8IP1 (11723275_at) / Fold change /veh LOC101060620 /// MAPK8IP1 (11723275_at) / RFU SPTSSB (11747773_x_at) / Fold change /veh SPTSSB (11747773_x_at) / RFU PRSS12 (11739890_at) / Fold change /veh PRSS12 (11739890_at) / RFU BIN1 (11741810_x_at) / Fold change /veh BIN1 (11741810_x_at) / RFU WNT11 (11732464_a_at) / Fold change /veh WNT11 (11732464_a_at) / RFU C10orf10 (11716521_a_at) / Fold change /veh C10orf10 (11716521_a_at) / RFU C5orf56 (11738089_at) / Fold change /veh C5orf56 (11738089_at) / RFU CYB561 (11721691_x_at) / Fold change /veh CYB561 (11721691_x_at) / RFU ANKRD19P (11752326_a_at) / Fold change /veh ANKRD19P (11752326_a_at) / RFU OR2T12 /// OR2T33 /// OR2T8 (11738714_s_at) / Fold change /veh OR2T12 /// OR2T33 /// OR2T8 (11738714_s_at) / RFU VCAN (11748164_a_at) / Fold change /veh VCAN (11748164_a_at) / RFU JSRP1 (11732532_at) / Fold change /veh JSRP1 (11732532_at) / RFU KRTAP10-11 (11738290_x_at) / Fold change /veh KRTAP10-11 (11738290_x_at) / RFU MYO3A (11730013_a_at) / Fold change /veh MYO3A (11730013_a_at) / RFU EBF3 (11725865_a_at) / Fold change /veh EBF3 (11725865_a_at) / RFU CAMK2N1 (11719241_x_at) / Fold change /veh CAMK2N1 (11719241_x_at) / RFU C5orf56 (11738088_a_at) / Fold change /veh C5orf56 (11738088_a_at) / RFU OLFML3 (11715873_a_at) / Fold change /veh OLFML3 (11715873_a_at) / RFU LOC100653217 /// NTM (11731650_a_at) / Fold change /veh LOC100653217 /// NTM (11731650_a_at) / RFU MAPK11 (11762145_a_at) / Fold change /veh MAPK11 (11762145_a_at) / RFU FIZ1 (11724087_x_at) / Fold change /veh FIZ1 (11724087_x_at) / RFU OASL (11726364_x_at) / Fold change /veh OASL (11726364_x_at) / RFU SOX15 (11748057_x_at) / Fold change /veh SOX15 (11748057_x_at) / RFU CD79A (11719716_a_at) / Fold change /veh CD79A (11719716_a_at) / RFU HIST1H1D (11736915_at) / Fold change /veh HIST1H1D (11736915_at) / RFU CASKIN2 (11723855_a_at) / Fold change /veh CASKIN2 (11723855_a_at) / RFU LOC730098 (11760151_x_at) / Fold change /veh LOC730098 (11760151_x_at) / RFU OR4N2 (11742367_at) / Fold change /veh OR4N2 (11742367_at) / RFU PRRT2 (11749266_a_at) / Fold change /veh PRRT2 (11749266_a_at) / RFU SNX32 (11753110_a_at) / Fold change /veh SNX32 (11753110_a_at) / RFU CDHR5 (11726645_a_at) / Fold change /veh CDHR5 (11726645_a_at) / RFU RCAN1 (11760418_a_at) / Fold change /veh RCAN1 (11760418_a_at) / RFU FAM167A (11723789_a_at) / Fold change /veh FAM167A (11723789_a_at) / RFU FAM26E (11764081_at) / Fold change /veh FAM26E (11764081_at) / RFU ISYNA1 (11749810_s_at) / Fold change /veh ISYNA1 (11749810_s_at) / RFU ACY1 (11761880_at) / Fold change /veh ACY1 (11761880_at) / RFU 11764098_at / Fold change /veh 11764098_at / RFU SAMD14 (11745864_x_at) / Fold change /veh SAMD14 (11745864_x_at) / RFU NPB (11741838_a_at) / Fold change /veh NPB (11741838_a_at) / RFU TMPRSS6 (11731388_a_at) / Fold change /veh TMPRSS6 (11731388_a_at) / RFU KRTAP10-2 (11738614_at) / Fold change /veh KRTAP10-2 (11738614_at) / RFU ARHGAP8 /// PRR5-ARHGAP8 (11727945_x_at) / Fold change /veh ARHGAP8 /// PRR5-ARHGAP8 (11727945_x_at) / RFU KRTAP5-7 /// NADSYN1 (11734609_at) / Fold change /veh KRTAP5-7 /// NADSYN1 (11734609_at) / RFU RASL12 (11751679_a_at) / Fold change /veh RASL12 (11751679_a_at) / RFU CDKN2B (11736163_a_at) / Fold change /veh CDKN2B (11736163_a_at) / RFU PRF1 (11729649_at) / Fold change /veh PRF1 (11729649_at) / RFU, ZNF638 /// ZNF638-IT1 / Fold change vs veh, ZNF638 /// ZNF638-IT1 / RFU, PANK3 / Fold change vs veh, PANK3 / RFU, SH3YL1 / Fold change vs veh, SH3YL1 / RFU, ZEB2 / Fold change vs veh, ZEB2 / RFU, NRIP1 / Fold change vs veh, NRIP1 / RFU, PTTG1IP / Fold change vs veh, PTTG1IP / RFU, CAPN2 / Fold change vs veh, CAPN2 / RFU, MED14 / Fold change vs veh, MED14 / RFU, SNORA58 / Fold change vs veh, SNORA58 / RFU, C1orf63 / Fold change vs veh, C1orf63 / RFU, LRRFIP1 / Fold change vs veh, LRRFIP1 / RFU, NDUFAF7 / Fold change vs veh, NDUFAF7 / RFU, SLC12A2 / Fold change vs veh, SLC12A2 / RFU, IBTK / Fold change vs veh, IBTK / RFU, ESF1 / Fold change vs veh, ESF1 / Fold change vs veh, TMEM50B / RFU, TAOK1 / Fold change vs veh, TAOK1 / RFU, ACBD3 / Fold change vs veh, ACBD3 / RFU, TMA16 / Fold change vs veh, TMA16 / RFU, RWDD3 / Fold change vs veh, RWDD3 / RFU, BCAT1 / Fold change vs veh, BCAT1 / RFU, EDEM3 / Fold change vs veh, EDEM3 / RFU, TMEM33 / Fold change vs veh, TMEM33 / RFU, WDR75 / Fold change vs veh, WDR75 / RFU, AHCTF1 / Fold change vs veh, AHCTF1 / RFU, TFRC / Fold change vs veh, TFRC / RFU, ZDHHC17 / Fold change vs veh, ZDHHC17 / RFU, NOM1 / Fold change vs veh, NOM1 / RFU, ARL8B / Fold change vs veh, ARL8B / RFU, ZBTB11 / Fold change vs veh, ZBTB11 / RFU, TAMM41 / Fold change vs veh, TAMM41 / RFU, KIAA1704 /// LOC100996395 / Fold change vs veh, KIAA1704 /// LOC100996395 / RFU, ING1 / Fold change vs veh, ING1 / RFU, TRMT61B / Fold change vs veh, TRMT61B / RFU, FUBP3 / Fold change vs veh, FUBP3 / RFU, TP53 / Fold change vs veh, TP53 / RFU, TNKS2 / Fold change vs veh, TNKS2 / RFU, ZFP14 / Fold change vs veh, ZFP14 / RFU, ACTR2 / Fold change vs veh, ACTR2 / RFU, PPP3R1 / Fold change vs veh, PPP3R1 / RFU, PIK3R1 / Fold change vs veh, PIK3R1 / RFU, HNRNPA1 / Fold change vs veh, HNRNPA1 / RFU, RNF170 / Fold change vs veh, RNF170 / RFU, ZNF28 / Fold change vs veh, ZNF28 / RFU, RNGTT / Fold change vs veh, RNGTT / RFU, OGT / Fold change vs veh, OGT / RFU, BRD1 / Fold change vs veh, BRD1 / RFU, MARS / Fold change vs veh, MARS / RFU, ZNF655 / Fold change vs veh, ZNF655 / RFU, FAHD1 / Fold change vs veh, FAHD1 / RFU, BDP1 / Fold change vs veh, BDP1 / RFU, LRRCC1 / Fold change vs veh, LRRCC1 / RFU, ARID1A / Fold change vs veh, ARID1A / RFU, ZNF146 / Fold change vs veh, ZNF146 / RFU, ZNF330 / Fold change vs veh, ZNF330 / RFU, GPN3 / Fold change vs veh, GPN3 / RFU, C9orf123 / Fold change vs veh, C9orf123 / RFU, N4BP2L2 / Fold change vs veh, N4BP2L2 / RFU, ARFIP1 / Fold change vs veh, ARFIP1 / RFU, FAM179B / Fold change vs veh, FAM179B / RFU, BCL10 / Fold change vs veh, BCL10 / RFU, UHRF1BP1L / Fold change vs veh, UHRF1BP1L / RFU, BET1 / Fold change vs veh, BET1 / RFU, CNOT2 / Fold change vs veh, CNOT2 / RFU, ZNF268 / Fold change vs veh, ZNF268 / Fold change vs veh, ZNF507 / RFU, DGCR2 / Fold change vs veh, DGCR2 / RFU, WDSUB1 / Fold change vs veh, WDSUB1 / Fold change vs veh, HSP90B1 /// MIR3652 / RFU, ADSS / Fold change vs veh, ADSS / RFU, GK / Fold change vs veh, GK / RFU, ZNF148 / Fold change vs veh, ZNF148 / RFU, TAF9 / Fold change vs veh, TAF9 / RFU, SLC1A5 / Fold change vs veh, SLC1A5 / RFU, SLMO2 / Fold change vs veh, SLMO2 / RFU, ABCC4 / Fold change vs veh, ABCC4 / RFU, LOC101060439 /// RAP1B / Fold change vs veh, LOC101060439 /// RAP1B / RFU, RFX7 / Fold change vs veh, RFX7 / RFU, GTPBP10 / Fold change vs veh, GTPBP10 / RFU, CNEP1R1 / Fold change vs veh, CNEP1R1 / RFU, BIVM-ERCC5 /// ERCC5 / Fold change vs veh, BIVM-ERCC5 /// ERCC5 / RFU, ILF3 / Fold change vs veh, ILF3 / RFU 11762660_at / Fold change /veh 11762660_at / RFU VCAN (11757783_s_at) / Fold change /veh VCAN (11757783_s_at) / RFU DDX43 (11728927_at) / Fold change /veh DDX43 (11728927_at) / RFU KRT8 (11758188_x_at) / Fold change /veh KRT8 (11758188_x_at) / RFU NKD1 (11759106_at) / Fold change /veh NKD1 (11759106_at) / RFU SRD5A1 (11742802_a_at) / Fold change /veh SRD5A1 (11742802_a_at) / RFU TPSAB1 /// TPSB2 (11721975_s_at) / Fold change /veh TPSAB1 /// TPSB2 (11721975_s_at) / RFU GSTM3 (11746129_a_at) / Fold change /veh GSTM3 (11746129_a_at) / RFU IL23R (11737362_x_at) / Fold change /veh IL23R (11737362_x_at) / RFU TMEM51 (11727254_a_at) / Fold change /veh TMEM51 (11727254_a_at) / RFU PIWIL2 (11732686_x_at) / Fold change /veh PIWIL2 (11732686_x_at) / RFU ORM1 (11744905_x_at) / Fold change /veh ORM1 (11744905_x_at) / RFU CCDC152 (11743942_at) / Fold change /veh CCDC152 (11743942_at) / RFU ECM1 (11717891_a_at) / Fold change /veh ECM1 (11717891_a_at) / RFU IL23R (11748794_a_at) / Fold change /veh IL23R (11748794_a_at) / RFU TNFAIP8L3 (11732012_x_at) / Fold change /veh TNFAIP8L3 (11732012_x_at) / RFU MBOAT4 (11741988_at) / Fold change /veh MBOAT4 (11741988_at) / RFU 11764193_at / Fold change /veh 11764193_at / RFU TMEM53 (11763286_at) / Fold change /veh TMEM53 (11763286_at) / RFU MAGEB2 (11727129_at) / Fold change /veh MAGEB2 (11727129_at) / RFU TMEM200A (11744735_a_at) / Fold change /veh TMEM200A (11744735_a_at) / RFU CCDC152 (11751479_a_at) / Fold change /veh CCDC152 (11751479_a_at) / RFU FAM211A (11726209_a_at) / Fold change /veh FAM211A (11726209_a_at) / RFU RGS16 (11746705_a_at) / Fold change /veh RGS16 (11746705_a_at) / RFU VCAN (11755009_s_at) / Fold change /veh VCAN (11755009_s_at) / RFU RHOB (11743442_s_at) / Fold change /veh RHOB (11743442_s_at) / RFU RGS16 (11720943_a_at) / Fold change /veh RGS16 (11720943_a_at) / RFU RGS16 (11720944_at) / Fold change /veh RGS16 (11720944_at) / RFU, VPS4B / Fold change vs veh, VPS4B / RFU, CREB1 / Fold change vs veh, CREB1 / RFU, DNAJC13 / Fold change vs veh, DNAJC13 / RFU, GNAQ / Fold change vs veh, GNAQ / RFU, CDK5R1 / Fold change vs veh, CDK5R1 / RFU, ZRANB3 / Fold change vs veh, ZRANB3 / RFU, CUL4A / Fold change vs veh, CUL4A / RFU, CCNY / Fold change vs veh, CCNY / RFU, UFL1 / Fold change vs veh, UFL1 / RFU, COG3 / Fold change vs veh, COG3 / RFU, DIAPH2 / Fold change vs veh, DIAPH2 / RFU, SKA2 / Fold change vs veh, SKA2 / RFU, AFF3 / Fold change vs veh, AFF3 / RFU, LMF1 / Fold change vs veh, LMF1 / RFU, IPO11 / Fold change vs veh, IPO11 / RFU, DFFB / Fold change vs veh, DFFB / RFU, FOXP1 / Fold change vs veh, FOXP1 / RFU, CARD8 / Fold change vs veh, CARD8 / RFU, STRN3 / Fold change vs veh, STRN3 / RFU, ADK / Fold change vs veh, ADK / RFU, RASSF2 / Fold change vs veh, RASSF2 / RFU, WIPF1 / Fold change vs veh, WIPF1 / RFU, LARP1B / Fold change vs veh, LARP1B / RFU, RASA1 / Fold change vs veh, RASA1 / RFU, RB1 / Fold change vs veh, RB1 / RFU, PPFIA1 / Fold change vs veh, PPFIA1 / RFU, MAT2A / Fold change vs veh, MAT2A / RFU, CCT5 / Fold change vs veh, CCT5 / RFU, WDR92 / Fold change vs veh, WDR92 / RFU, CUX1 / Fold change vs veh, CUX1 / RFU, TTC7A / Fold change vs veh, TTC7A / RFU, TMEM135 / Fold change vs veh, TMEM135 / RFU, DEPTOR / Fold change vs veh, DEPTOR / RFU, CPM / Fold change vs veh, CPM / RFU, DNAJB6 / Fold change vs veh, DNAJB6 / RFU, CACNA2D3 / Fold change vs veh, CACNA2D3 / RFU, DTX4 / Fold change vs veh, DTX4 / RFU, TFCP2 / Fold change vs veh, TFCP2 / RFU, GMCL1 /// GMCL1P1 / Fold change vs veh, GMCL1 /// GMCL1P1 / RFU, AEBP2 / Fold change vs veh, AEBP2 / RFU, SNHG1 /// SNORD22 /// SNORD25 /// SNORD26 /// SNORD27 /// SNORD28 /// SNORD29 /// SNORD31 / Fold change vs veh, SNHG1 /// SNORD22 /// SNORD25 /// SNORD26 /// SNORD27 /// SNORD28 /// SNORD29 /// SNORD31 / Fold change (Aza/veh), C12orf56 (ProbeSet 11735607_a_at) / Fold change (ACY-1035/veh), C12orf56 (ProbeSet 11735607_a_at) / Fold change (Aza/veh), FGFR1OP (ProbeSet 11751329_s_at) / Fold change (ACY-1035/veh), FGFR1OP (ProbeSet 11751329_s_at) / Fold change (Aza/veh), VPS36 (ProbeSet 11739960_a_at) / Fold change (ACY-1035/veh), VPS36 (ProbeSet 11739960_a_at) / RFU SYPL1 (11715823_x_at) / Fold change /veh SYPL1 (11715823_x_at) / RFU IGFBP7 (11715501_s_at) / Fold change /veh IGFBP7 (11715501_s_at) / RFU REEP3 (11722064_at) / Fold change /veh REEP3 (11722064_at) / RFU IGLL1 (11728026_x_at) / Fold change /veh IGLL1 (11728026_x_at): dose or concentration left out as unconfirmed
Details: MV-4-11 cells, 48 hours

Structure (SMILES): Nc1ccc(-c2cccs2)cc1NC(=O)c1ccc2c(c1)cc(C1CC1)n2CCN1CCOCC1 [ACY-1035]
- Fold change /veh 11764098_at: 1.17

From paper PMC5218480 (PLoS ONE, 2017)
